US20110098309A1, “METHODS OF INHIBITING THE FORMATION OF AMYLOID-BETA DIFFUSABLE LIGANDS USING ACYLHYDRAZIDE COMPOUNDS” (priority 2007, published 2011)

The compounds below were run against Aβ1-42 (Homo sapiens, UniProt P05067) (assay: FRET assay of Aβ1-42 oligomer (ADDL) assembly inhibition). Conditions: 0.2 μM FITC-Aβ(1-42) and 0.8 μM Aβ(1-42), 37° C., six concentrations from about 10 μM to about 0.03 μM.
Type: biochemical
Source text: Fluorescence (or Förster) Resonance Energy Transfer (FRET) is a distance-dependent, non-radiative transfer of energy in which the de-excitation of one fluorophore (donor) is coupled to excitation of another fluorophore (acceptor). FRET occurs if (1) the quantum of energy emitted by a donor fluorophore corresponds to an acceptor fluorophore's excitation energy, (2) the orientations of donor and acceptor transition dipoles are nearly parallel and (3) the donor fluorescent emission spectrum overlaps the acceptor absorption spectrum.
In this assay, assembly of Aβ1-42 oligomer formation is monitored by FRET using N-terminal conjugates of fluorescein-Aβ1-42 as both the donor and acceptor fluorophore (fluorescein-fluorescein Ro˜45 Å). […] Inhibition of Aβ1-42 assembly is observed as the absence or attenuation of fluorescein quenching.
FRET and FP assays are performed in 384-well Corning Non-Binding Surface, black, opaque microtiter plates, and the assay buffer consists of 25 mM MOPS-Tris (pH 8.0) with 100 mM MgCl2. The assay volume, containing 0.2 μM FITC-Aβ(1-42) and 0.8 μM Aβ(1-42), is 50 μl and the temperature is 37° C. […] Kinetic traces are collected by recording fluorescence intensity and polarization readings every five minutes over about a three hour time course. […] Positive control reactions contain all buffer components in the absence of added small molecule or antibody reagents. To test for ADDL assembly inhibition, the compound was incubated with the peptide mixture at six concentrations from about 10 μM decreasing to about 0.03 μM.

Chain of Aβ1-42 (P05067 672-713 limits assumed): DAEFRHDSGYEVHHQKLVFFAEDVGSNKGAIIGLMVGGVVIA

IC50	SMILES
4.2 µM	O=C(C/C(=N\NC(=O)c1ccccc1O)C(F)(F)F)c1ccco1 [Compound 1, 2-hydroxy-N′-(1,1,1-trifluoro-4-(furan-2-yl)-4-oxobutan-2-ylidene)benzohydrazide]
5.2 µM	O=C(N/N=C(/CC(=O)N1CCN(Cc2ccccc2)CC1)C(F)(F)F)c1ccccc1O [Compound 3, N′-(4-(4-benzylpiperazin-1-yl)-1,1,1-trifluoro-4-oxobulan-2-ylidene)-2-hydroxy-benzohydrazide]
5.9 µM	C/C(CC(=O)c1ccco1)=N\NC(=O)c1sc2cc(F)ccc2c1Cl [Compound 4, 3-chloro-6-fluoro-N′-(4-(furan-2-yl)-4-oxobutan-2-ylidene)benzo[b]-thiophene-2-carbohydrazide]
6 µM	CS(=O)(=O)Nc1ccccc1C(=O)N/N=C(/CC(=O)c1cccs1)C(F)(F)F [Compound 5, N-(2-(2-(1,1,1-trifluoro-4-oxo-4-(thiophen-2-yl)butan-2-ylidene)hydrazine-carbonyl)phenyl)methanesulfonamide]
7.1 µM	CN1CCN(C(=O)C/C(=N/NC(=O)c2ccccc2O)C(F)(F)F)CC1 [Compound 6, 2-hydroxy-N′-(1,1,1-trifluoro-4-(4-methylpiperazin-1-yl)-4-oxobutan-2-ylidene) benzohydrazide]
7.4 µM	CC(C)(C)C(=O)C/C(=N/NC(=O)c1ccccc1O)C(F)(F)F [Compound 7, 2-hydroxy-N′-(1,1,1-trifluoro-5,5-dimethyl-4-oxohexan-2-ylidene)benzohydrazide]
7.7 µM	O=C(C/C(=N/NC(=O)c1ccccc1O)C(F)(F)F)c1cc2ccccc2s1 [Compound 8, N′-(4-(benzo[b]thiophen-2-yl)-1,1,1-trifluoro-4-oxobutan-2-ylidene)-2-hydroxy benzohydrazide]
8.2 µM	Cn1nccc1C(=O)C/C(=N/NC(=O)c1ccccc1O)C(F)(F)F [Compound 9, 2-hydroxy-N′-(1,1,1-trifluoro-4-(1-methyl-1H-pyrazol-5-yl)-4-oxobutan-2-ylidene) benzohydrazide]
8.3 µM	Cc1ccc(C(=O)C/C(=N/NC(=O)c2sc3cc(F)ccc3c2Cl)C(F)(F)F)s1 [Compound 10, 3-chloro-6-fluoro-N′-(1,1,1-trifluoro-4-(5-methylthiophen-2-yl)-4-oxobutan-2-ylidene)benzo[b]thiophene-2-carbohydrazide]
8.4 µM	Cc1nnsc1C(=O)N/N=C(/CC(=O)c1cccs1)C(F)(F)F [Compound 11, 4-methyl-N′-(1,1,1-trifluoro-4-oxo-4-(thiophen-2-yl)butan-2-ylidene)-1,2,3-thiadiazole-5-carbohydrazide]
8.6 µM	CC(C)(C)C(=O)C/C(=N/NC(=O)c1sc2cc(F)ccc2c1Cl)C(F)(F)F [Compound 12, 3-chloro-6-fluoro-N′-(1,1,1-trifluoro-5,5-dimethyl-4-oxohexan-2-ylidene)benzo[b]thiophene-2-carbohydrazide]
9.1 µM	Cc1ccc(C(=O)C/C(=N/NC(=O)c2ccccc2O)C(F)(F)F)s1 [Compound 13, 2-hydroxy-N′-(1,1,1-trifluoro-4-(5-methylthiophen-2-yl)-4-oxobutan-2-ylidene) benzohydrazide]
9.5 µM	O=C(C/C(=N/NC(=O)c1sc2ccccc2c1Cl)C(F)(F)F)c1cccs1 [Compound 14, 3-chloro-N′-(1,1,1-trifluoro-4-oxo-4-(thiophen-2-yl)butan-2-ylidene)benzo[b]thiophene-2-carbohydrazide]
9.5 µM	O=C(C/C(=N\NC(=O)c1sc2ccccc2c1Cl)C(F)(F)F)c1ccco1 [Compound 15, 3-chloro-N′-(1,1,1-trifluoro-4-(furan-2-yl)-4-oxobutan-2-ylidene)benzo[b]thiophene-2-carbohydrazide]
9.7 µM	O=C(C/C(=N/NC(=O)c1ccccc1NS(=O)(=O)c1ccc(Cl)cc1)C(F)(F)F)c1cccs1 [Compound 16, 4-chloro-N-(2-(2-(1,1,1-trifluoro-4-oxo-4-(thiophen-2-yl)butan-2-ylidene) hydrazinecarbonyl)phenyl)benzenesulfonamide]
10.2 µM	O=C(C/C(=N/NC(=O)c1sc2cc(F)ccc2c1Cl)C(F)(F)F)c1cc2ccccc2s1 [Compound 17, N′-(4-(benzo[b]thiophen-2-yl)-1,1,1-trifluoro-4-oxobutan-2-ylidene)-3-chloro-6-fluorobenzo[b] thiophene-2-carbohydrazide]
10.4 µM	O=C(N/N=C(/CC(=O)N1CCOCC1)C(F)(F)F)c1ccccc1O [Compound 18, 2-hydroxy-N′-(1,1,1-trifluoro-4-morpholino-4-oxobutan-2-ylidene)benzohydrazide]
11.5 µM	O=C(C/C(=N/NC(=O)c1ccccc1O)C(F)(F)F)c1ccc(Cl)s1 [Compound 19, N′-(4-(5-chlorothiophen-2-yl)-1,1,1-trifluoro-4-oxobutan-2-ylidene)-2-hydroxy benzohydrazide]

IC50	SMILES
11.9 µM	O=C(C/C(=N/NC(=O)c1cc(Cl)ccc1O)C(F)(F)F)c1cccs1 [Compound 20, 5-chloro-2-hydroxy-N′-(1,1,1-trifluoro-4-oxo-4-(thiophen-2-yl)butan-2-ylidene)benzohydrazide]
12.5 µM	Cc1csc(C(=O)N/N=C(/CC(=O)c2cccs2)C(F)(F)F)c1Cl [Compound 21, 3-chloro-4-methyl-N′-(1,1,1-trifluoro-4-oxo-4-(thiophen-2-yl)butan-2-ylidene)thiophene-2-carbohydrazide]
13.5 µM	O=C(C/C(=N/NC(=O)c1cccc2cc[nH]c12)C(F)(F)F)c1cccs1 [Compound 22, N′-(1,1,1-trifluoro-4-oxo-4-(thiophen-2-yl)butan-2-ylidene)-1H-indole-7-carbohydrazide]
16 µM	O=C(C/C(=N/NC(=O)c1sc2cc(F)ccc2c1Cl)C(F)(F)F)c1ccc(Cl)s1 [Compound 23, 3-chloro-N′-(4-(5-chlorothiophen-2-yl)-1,1,1-trifluoro-4-oxobulan-2-ylidene)-6-fluorobenzo[b]thiophene-2-carbohydrazide]
16.1 µM	O=C(C/C(=N/NC(=O)c1sc2cc(F)ccc2c1Cl)C(F)(F)F)c1cccs1 [Compound 24, 3-chloro-6-fluoro-N′-(1,1,1-trifluoro-4-oxo-4-(thiophen-2-yl)butan-2-ylidene)benzo[b]thiophene-2-carbohydrazide]
16.3 µM	Cc1cccc(C(=O)N/N=C(/CC(=O)c2cccs2)C(F)(F)F)c1O [Compound 25, 2-hydroxy-3-methyl-N′-(1,1,1-trifluoro-4-oxo-4-(thiophen-2-yl)butan-2-ylidene)benzohydrazide]
18.8 µM	O=C(N/N=C(/CC(=O)c1cccs1)C(F)(F)F)c1ccc(Br)cc1 [Compound 27, 4-bromo-N′-(1,1,1-trifluoro-4-oxo-4-(thiophen-2-yl)butan-2-ylidene)benzohydrazide]
19.4 µM	O=C(C/C(=N/NC(=O)c1cc2ccccc2s1)C(F)(F)F)c1cccs1 [Compound 28, N′-(1,1,1-trifluoro-4-oxo-4-(thiophen-2-yl)butan-2-ylidene)benzo[b]thiophene-2-carbohydrazide]
26.7 µM	C/C(CC(=O)N1CCC(c2ccccc2)CC1)=N\NC(=O)c1ccccc1O [Compound 29, 2-hydroxy-N′-(4-oxo-4-(4-phenylpiperidin-1-yl)butan-2-ylidene)benzohydrazide]
28.3 µM	O=C(C/C(=N/NC(=O)c1[nH]c2ccccc2c1Cl)C(F)(F)F)c1cccs1 [Compound 30, 3-chloro-N′-(1,1,1-trifluoro-4-oxo-4-(thiophen-2-yl)butan-2-ylidene)-1H-indole-2-carbohydrazide]
30.2 µM	O=C(C/C(=N\NC(=O)c1sc2cc(F)ccc2c1Cl)C(F)(F)F)c1ccco1 [Compound 31, 3-chloro-6-fluoro-N′-(1,1,1-trifluoro-4-(furan-2-yl)-4-oxobulan-2-ylidene)benzo[b]thiophene-2-carbohydrazide]
35 µM	C/C(CC(N)=O)=N\NC(=O)c1ccccc1O [Compound 32, 3-(2-(2-hydroxybenzoyl)hydrazono)butanamide]
40.8 µM	Cc1ccc(C(=O)N/N=C(/CC(=O)c2cccs2)C(F)(F)F)cc1 [Compound 33, 4-methyl-N′-(1,1,1-trifluoro-4-oxo-4-(thiophen-2-yl)butan-2-ylidene)benzohydrazide]
40.9 µM	O=C(C/C(=N/NC(=O)c1cnn(-c2ccccc2)c1C(F)(F)F)C(F)(F)F)c1cccs1 [Compound 34, 1-phenyl-N′-(1,1,1-trifluoro-4-oxo-4-(thiophen-2-yl)butan-2-ylidene)-5-(trifluoromethyl)-1H-pyrazole-4-carbohydrazide]
41.2 µM	O=C(C/C(=N/NC(=O)c1c(F)cccc1F)C(F)(F)F)c1cccs1 [Compound 35, 2,6-difluoro-N′-(1,1,1-trifluoro-4-oxo-4-(thiophen-2-yl)butan-2-ylidene)benzohydrazide]
1 µM	COc1ccc(O)c(/C=N/NC(=O)c2ccc(-n3cccc3)cc2O)c1 [Compound 36, 2-hydroxy-N′-(2-hydroxy-5-methoxy-benzylidene)-4-(1H-pyrrol-1-yl) benzohydrazide]
1.2 µM	COc1ccc(O)c(/C=N/NC(=O)c2cc3ccccc3cc2O)c1 [Compound 37, 3-hydroxy-N′-(2-hydroxy-5-methoxy-benzylidene)-2-naphtho hydrazide]
